In PubChem BioAssay AID1888 (NMMLSC, 2009):
Activity calls are given as the source filed them. How the calls were made is not given here.

Molecular target: Regulator of G-protein signaling 16 (Homo sapiens) (UniProt O15492)
Experiment: RGS16-Galphao interaction modulators, dose response, biochemical, bead-based flow cytometry, multiplex (AID 1888)
Details: RGS16-Galphao binding; for Ki: measured here: Ki for RGS16-Galphao binding

Sequence of Regulator of G-protein signaling 16 (Homo sapiens) (O15492 whole entry, looked up): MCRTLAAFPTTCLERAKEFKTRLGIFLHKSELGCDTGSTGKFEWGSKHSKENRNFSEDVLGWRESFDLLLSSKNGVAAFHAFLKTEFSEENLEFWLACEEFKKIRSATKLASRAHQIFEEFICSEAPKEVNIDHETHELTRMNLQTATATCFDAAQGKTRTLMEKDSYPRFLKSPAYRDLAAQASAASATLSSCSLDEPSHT

Compound | Ki | EC50
CCCNC(=O)Cn1sc2nc(C)cc(C)c2c1=O | 1.42 µM | 
Cc1cc(C)c2c(=O)n(CC(=O)Nc3cccc(F)c3)sc2n1 | 1.39 µM | 
CCN=c1scc(C)n1/N=C/c1ccc(O)c(O)c1O | 15.1 µM | 
O=c1c2ccccc2sn1-c1cc(S(=O)(=O)N2CCOCC2)ccc1N1CCOCC1 | 0.56 µM | 
CCNc1ccc2noc3c2c1C(=O)c1ccccc1-3 | 23.7 µM | 
COc1ccc(C2=CC(=O)C=CC2=O)cc1 | 3 µM | 
Nc1c(C(=O)NCC2CCCO2)sc2nc3c(c(-c4ccco4)c12)CC/C3=C\c1ccco1 (configuration not stated) | 2.21 µM | 
CN(C)c1ncc(C2=C(Cl)C(=O)C(N3CCCC3)=C(Cl)C2=O)s1 | 4.05 µM | 
CC1(C)OC(=O)C(=Cc2ccc(-c3ccc(S(N)(=O)=O)cc3)o2)C(=O)O1 | 9.64 µM | 
CCC(=O)NC1=C(Cl)C(=O)C(NC(=O)CC)=C(Cl)C1=O | 0.68 µM | 
O=c1[nH]c(=S)n(Cc2ccco2)c(O)c1C=NCc1cccs1 |  | > 30 µM (inactive)
O=C(Cc1csc(N2CCOCC2)n1)N/N=C/c1ccc(O)c(O)c1O | 9.08 µM | 
Cc1[nH]n(-c2ccccc2)c(=S)c1C=Nc1cccc([N+](=O)[O-])c1 | 1.29 µM | 
O=[N+]([O-])c1ccc(Sc2cccc[n+]2[O-])c2nonc12 | 1.07 µM | 
CCN1/C(=C/C=C/C=C/c2sc3ccccc3[n+]2CC)Sc2ccccc21 | 5.41 µM | 
O=C(NCCCN1CCOCC1)c1sc2cc([N+](=O)[O-])ccc2c1Cl | 0.77 µM | 
CCN1/C(=C/C(C)=C/c2sc3ccccc3[n+]2CC)Sc2ccccc21 | 7.85 µM | 
CCOc1ccccc1-c1c2cc(O)c(=O)cc-2oc2cc(O)c(O)cc12 | 11.3 µM | 
C/C(=N/NC(=O)c1cc(O)c(O)c(O)c1)c1ccc([N+](=O)[O-])cc1 | 15.8 µM | 
CC(NC(=O)c1sc2cc([N+](=O)[O-])ccc2c1Cl)C(C)(C)C (configuration not stated) | 2 µM | 

Compound | Ki | EC50
CN(C)S(=O)(=O)c1cccc(-n2sc3ccccc3c2=O)c1 | 1.24 µM | 
CC(=O)OCCCNc1cc(Sc2nc3ccccc3s2)c2nonc2c1[N+](=O)[O-] | 8.45 µM | 
Cc1ccccc1-n1c(-c2ccncc2)n[nH]c1=S | 6.29 µM | 
O=C1CCCC2=C1C(c1cccs1)n1ncnc1N2 (configuration not stated) |  | > 30 µM (inactive)
CCN(CC)S(=O)(=O)c1cccc(C(=O)N/N=C/c2ccc(O)c(O)c2O)c1 | 4.14 µM | 
Cc1ccc(NC(=O)Cn2sc3nc(C)cc(C)c3c2=O)c(Cl)c1 | 0.71 µM | 
CC(=O)N1CC[n+]2c(-c3ccc([N+](=O)[O-])cc3)csc21 | 11 µM | 
Cc1[nH]n(-c2ccccc2)c(=S)c1C=NCCCN=Cc1c(C)[nH]n(-c2ccccc2)c1=S | 7.13 µM | 
O=c1c2ccccc2sn1-c1ccccc1 | 1.37 µM | 
CCOC(=O)c1sc(NC(=O)CSc2nnc(Cc3ccccc3)o2)c(C#N)c1C | 10.9 µM | 
O=c1c2ccccc2sn1-c1cc(S(=O)(=O)N2CCOCC2)ccc1N1CCCC1 | 1.83 µM | 
O=C1C(Cl)=C(N2CCCCC2)C(=O)C(Cl)=C1c1cnc(N2CCCCC2)s1 | 1.34 µM | 
O=C(COc1ccccc1C(=O)N/N=C\c1ccc(O)c(O)c1)N/N=C/c1ccc(O)c(O)c1 | 3.24 µM | 
CCC(=O)NC(c1ccc(C)cc1)c1cc([N+](=O)[O-])c2cccnc2c1O (configuration not stated) | 9.46 µM | 
O=C1CCC(=O)N(O)CCCCCNC(=O)CCC(=O)N(O)CCCCCNC(=O)CCC(=O)N(O)CCCCCN1 | 1.82 µM | 
COCCCNC(=O)c1ccc2c3c(onc13)-c1ccccc1C2=O | 4.61 µM | 
CC(C)Sc1nc2ccc(N3C(=O)C4CCCCC4C3=O)cc2s1 (configuration not stated) |  | > 30 µM (inactive)
Cc1cc(Cl)ccc1N=c1ssnc1Cl | 7.19 µM | 
O=C1OCC2OC(O)C(O)C(O)C2OC(=O)c2cc(O)c(O)c(O)c2-c2c(O)c(O)c3oc(=O)c4c(c(O)c(O)c5oc(=O)c2c3c54)-c2c1cc(O)c(O)c2O (configuration not stated) | 13.4 µM | 
Cc1ccc(-n2sc3ccccc3c2=O)cc1S(=O)(=O)N1CCCCC1 | 1.62 µM | 

Compound | Ki | EC50
NS(=O)(=O)c1ccc(CNC(=O)/C=C/c2ccco2)cc1 | 6.22 µM | 
O=C(OCC1O[C@@H](OC(=O)c2cc(O)c(O)c(O)c2)[C@@H](OC(=O)c2cc(O)c(O)c(O)c2)[C@@H](OC(=O)c2cc(O)c(O)c(O)c2)[C@@H]1OC(=O)c1cc(O)c(O)c(O)c1)c1cc(O)c(O)c(O)c1 (some centres not stated) | 4.68 µM | 
CC(=O)N(O)CCCCCNC(=O)CCC(=O)N(O)CCCCCNC(=O)CCC(=O)N(O)CCCCCN | 1.5 µM | 
COc1ccc(OC)c(CCNC(=O)Cn2sc3nc(C)cc(C)c3c2=O)c1 | 1.43 µM | 
CCOC(=O)C1CCCN(C(=O)Cn2sc3nc(C)cc(C)c3c2=O)C1 (configuration not stated) | 1.53 µM | 
NS(=O)(=O)c1ccc(N/N=C/c2ccc(O)c(O)c2O)c([N+](=O)[O-])c1 | 1.35 µM | 1.66 µM
CN1CCN(C2=C(Cl)C(=O)C(c3cnc(N4CCCCC4)s3)=C(Cl)C2=O)CC1 | 0.15 µM | 
CCOC(=O)C1=C(C)NC(C)=C(C(=O)OCCNC(=O)c2cccnc2)C1c1cccc([N+](=O)[O-])c1 (configuration not stated) |  | > 30 µM (inactive)
Cc1cccc(N2CCN(C(=O)Cn3sc4nc(C)cc(C)c4c3=O)CC2C)c1 (configuration not stated) | 1.05 µM | 
COc1ccc(Br)cc1/C=N/Nc1cccc(C(=O)O)c1 |  | > 30 µM (inactive)
CCOC(=O)N=Nc1c(O)n(C)c2ccccc12 |  | > 30 µM (inactive)
O=C(O)C[C@@H]1C(=O)O[C@@H]2C(COC(=O)c3cc(O)c(O)c(O)c3)O[C@@H](OC(=O)c3cc(O)c(O)c(O)c3)[C@@H](OC(=O)c3cc(O)c(O)c4c3[C@H]1[C@H](O)C(=O)O4)[C@H]2OC(=O)c1cc(O)c(O)c(O)c1 (some centres not stated) | 1.36 µM | 
Cc1cc(C)c2c(=O)n(CC(=O)Nc3ccc(Cl)cc3)sc2n1 | 1.42 µM | 
CCOC(=O)/C(C(=O)Nc1ccccc1Cl)=C1/NC(C)(C)Cc2ccccc21 |  | inactive
CN(C)[C@@H]1C(=O)C(C(=O)NCN2CCCC2)=C(O)[C@@]2(O)C(=O)C3=C(O)c4c(O)cccc4[C@@](C)(O)C3CC12 (some centres not stated) | 5.93 µM | 7.31 µM
Cc1ccccc1-n1sc2cc(F)ccc2c1=O | 13 µM | 
COC(=O)CCC(=O)Nc1sc(C)c(C)c1C(N)=O | 5.32 µM | 
O=c1c2ccccc2sn1-c1ccc(S(=O)(=O)N2CCCC2)cc1 | 1.94 µM | 
CN=c1scc(C)n1/N=C/c1ccc(O)c(O)c1O | 7.14 µM | 
O=C(O[C@@H]1OC2COC(=O)c3cc(O)c(O)c(O)c3-c3c(cc(O)c(O)c3O)C(=O)O[C@@H]([C@H]1O)[C@@H]2O)c1cc(O)c(O)c(O)c1 | 5.42 µM | 
